Test results from US12162884B2, “Solid forms of (R)-N-(2-(5-fluoropyridin-3-yl)-8-isopropylpyrazolo[1,5-a] [1,3,5]triazin-4-yl)-2,3,4,9-tetrahydro-1H-carbazol-3-amine as aryl hydrocarbon receptor (AHR) inhibitors” (Ikena Oncology, Inc., priority 2019, dated 2024).
Converted amounts (≈) assume the structure as drawn. Marks after values point to notes of the source that are not given here.

Key:
[1] = Solubility studies in water, FaSSIF, FeSSIF and FaSSGF (excess solids in 5 mL medium at 37° C., HPLC; pH, XRPD and NMR of remaining material); assay type: physicochemical; conditions: for solubility at 30 min / solubility at 120 min / solubility at 24 h: 37 °C, thermodynamic from solid; for pH: pH of solubility sample; for Solubility / solubility at 24 hours in FeSSIF: 37° C.; for solubility at 24 hours in FeSSIF: comparison among the tested forms
Protocol: Simulated fluids were sourced from and prepared according to biorelevant.com using their FaSSIF/FeSSIF/FaSSGF Powder (v1, formerly known as SIF Powder). Samples were prepared by adding excess solids to 5 mL of medium at 37° C. Samples were pulled and filtered at 30 minutes, 120 minutes, and 24 hours and tested for solution concentration using the HPLC parameters described below in Table 13.
The pH of the samples at each timepoint was also measured; pH paper was used at 30 minutes and 120 minutes due to the small sample size, and a pH meter was used at 24 hours. The remaining material from all trials was analyzed by XRPD after 24 hours to determine if any polymorphic form changes had taken place. The remaining material from trials in water was analyzed by NMR after 24 hours to determine if disassociation had taken place.

[2] = Stability studies at 40° C./75% RH (HPLC); assay type: physicochemical; conditions: for stability / degradation over time: Time 0, 1 week, 2 weeks, 4 weeks
Protocol: Stability studies of compound A, Form B, Compound 1, Form B, Compound 2, Form A, Compound 3, Form B, and Compound 4, Form A was carried out at 40° C./75% RH. Samples were stored in loosely capped vials in a chamber containing a saturated NaCl solution to achieve approximately 75% RH within the chamber. The chamber was stored in a 40° C. oven. Samples were analyzed at Time 0, 1 week, 2 weeks, and 4 weeks using the HPLC parameters described above in Table 13.

[3] = FaSSGF, fassgf or other biorelevant, 30 minutes
[4] = FaSSGF, fassgf or other biorelevant, 120 minutes
[5] = FaSSGF, fassgf or other biorelevant, 24 hours

| SMILES | solubility at 30 min [1, 3] [µg/mL] | solubility at 120 min [1, 4] [µg/mL] | solubility at 24 h [1, 5] [µg/mL] | pH ([1]; FaSSGF, 30 minutes, pH paper) | pH ([1]; FaSSGF, 120 minutes, pH paper) | pH ([1]; FaSSGF, 24 hours, pH meter) | pH ([1]; FaSSIF, 30 minutes, pH paper) | pH ([1]; FaSSIF, 120 minutes, pH paper) | pH ([1]; FaSSIF, 24 hours, pH meter) | pH ([1]; FeSSIF, 30 minutes, pH paper) | pH ([1]; FeSSIF, 120 minutes, pH paper) | pH ([1]; FeSSIF, 24 hours, pH meter) | pH ([1]; Water, 30 minutes, pH paper) | pH ([1]; Water, 120 minutes, pH paper) | pH ([1]; Water, 24 hours, pH meter) | % Area ([2]; 1 Week, HPLC) [% Area] | % Area ([2]; 2 Weeks, HPLC) [% Area] | % Area ([2]; 4 Weeks, HPLC) [% Area] | stability / degradation over time ([2]; HPLC) | % Area ([2]; Time 0, HPLC) [% Area] | further results |
| --- | --- | --- | --- | --- | --- | --- | --- | --- | --- | --- | --- | --- | --- | --- | --- | --- | --- | --- | --- | --- | --- |
| CC(C)c1cnn2c(N[C@@H]3CCc4[nH]c5ccccc5c4C3)nc(-c3cncc(F)c3)nc12.CCS(=O)(=O)O [Compound 1 Form B] | < 0.1 | < 0.1 | < 0.1 | 1.5 | 1.5 | 1.2 | 6 | 6 | 6.2 | 5 | 5 | 4.8 | 4.5 | 4.5 | 3.4 | 99.59 | 99.53 | 99.46 | equally stable | 99.90 | solubility at 30 min ([1]; FaSSIF, 30 minutes): 45 µg/mL; solubility at 120 min ([1]; FaSSIF, 120 minutes): 34 µg/mL; solubility at 24 h ([1]; FaSSIF, 24 hours): 18 µg/mL; solubility at 30 min ([1]; FeSSIF, 30 minutes): 58 µg/mL; solubility at 120 min ([1]; FeSSIF, 120 minutes): 56 µg/mL; solubility at 24 h ([1]; FeSSIF, 24 hours): 63 µg/mL; solubility at 30 min ([1]; water, 30 minutes): < 0.1 µg/mL; solubility at 120 min ([1]; water, 120 minutes): < 0.1 µg/mL; solubility at 24 h ([1]; water, 24 hours): < 0.1 µg/mL |
| CC(C)c1cnn2c(N[C@@H]3CCc4[nH]c5ccccc5c4C3)nc(-c3cncc(F)c3)nc12 [Compound 2 Form A] | < 0.1 | < 0.1 | < 0.1 |  |  | 1.2 | 6 | 6 | 5.0 | 5 | 5 | 4.7 | 3.5 | 4 | 2.9 | 99.20 | 98.30 | 98.58 | fairly stable | 99.87 | Solubility ([1]; FaSSIF, 30 minutes): 78 µg/mL (≈ 177 µM); Solubility ([1]; FaSSIF, 120 minutes): 40 µg/mL (≈ 90.6 µM); Solubility ([1]; FaSSIF, 24 hours): 14 µg/mL (≈ 31.7 µM); Solubility ([1]; FeSSIF, 30 minutes): 58 µg/mL (≈ 131 µM); Solubility ([1]; FeSSIF, 120 minutes): 160 µg/mL (≈ 362 µM); Solubility ([1]; FeSSIF, 24 hours): 120 µg/mL (≈ 272 µM); solubility at 24 hours in FeSSIF ([1]; FeSSIF, 24 hours): highest solubility; solubility at 30 min ([1]; water, 30 minutes): < 0.1 µg/mL; solubility at 120 min ([1]; water, 120 minutes): < 0.1 µg/mL; solubility at 24 h ([1]; water, 24 hours): < 0.1 µg/mL; loss of area over four weeks ([2]; four weeks, HPLC): ~1.5 % area |
| CC(C)c1cnn2c(N[C@@H]3CCc4[nH]c5ccccc5c4C3)nc(-c3cncc(F)c3)nc12.CS(=O)(=O)O [Compound 3 Form B] | < 0.1 | < 0.1 | < 0.1 | 1.5 | 1.5 | 1.2 | 6 | 6 | 5.7 | 5 | 5 | 4.4 | 4 | 4 | 2.4 | 91.60 | 69.61 | 16.23 | significant degradation was observed over time | 99.88 | solubility at 30 min ([1]; FaSSIF, 30 minutes): 65 µg/mL; solubility at 120 min ([1]; FaSSIF, 120 minutes): 34 µg/mL; solubility at 24 h ([1]; FaSSIF, 24 hours): 16 µg/mL; solubility at 24 hours in FeSSIF ([1]; FeSSIF, 24 hours): highest solubility; solubility at 30 min ([1]; FeSSIF, 30 minutes): 27 µg/mL; solubility at 120 min ([1]; FeSSIF, 120 minutes): 43 µg/mL; solubility at 24 h ([1]; FeSSIF, 24 hours): 160 µg/mL; solubility at 30 min ([1]; water, 30 minutes): < 0.1 µg/mL; solubility at 120 min ([1]; water, 120 minutes): < 0.1 µg/mL; solubility at 24 h ([1]; water, 24 hours): < 0.1 µg/mL; solid state of the solids at the end of the study ([2]; end of the study): lost all crystallinity and became x-ray amorphous |
| CC(C)c1cnn2c(N[C@@H]3CCc4[nH]c5ccccc5c4C3)nc(-c3cncc(F)c3)nc12 [Compound A Form B, (3R)—N-[2-(5-fluoro-3-pyridyl)-8-isopropyl-pyrazolo[1,5-a][1,3,5]triazin-4-yl]-2,3,4,9-tetrahydro-1H-carbazol-3-amine] |  |  |  |  |  |  | 6 | 6 | 6.4 | 5 | 5 | 4.8 |  | 4.5 | 7.7 | 99.22 | 99.05 | 99.58 | equally stable |  | Solubility ([1]; FaSSGF, 30 minutes): <0.1 µg/mL; Solubility ([1]; FaSSGF, 120 minutes): <0.1 µg/mL; Solubility ([1]; FaSSGF, 24 hours): <0.1 µg/mL; Solubility ([1]; FaSSIF, 30 minutes): 4.9 µg/mL (≈ 11.1 µM); Solubility ([1]; FaSSIF, 120 minutes): 11 µg/mL (≈ 24.9 µM); Solubility ([1]; FaSSIF, 24 hours): 9.5 µg/mL (≈ 21.5 µM); Solubility ([1]; FeSSIF, 30 minutes): <0.1 µg/mL; Solubility ([1]; FeSSIF, 120 minutes): 27 µg/mL (≈ 61.2 µM); Solubility ([1]; FeSSIF, 24 hours): 21 µg/mL (≈ 47.6 µM); Solubility ([1]; Water, 30 minutes): <0.1 µg/mL; Solubility ([1]; Water, 120 minutes): <0.1 µg/mL; Solubility ([1]; Water, 24 hours): <0.1 µg/mL; % Area ([2]; Time 0, HPLC, 1 mg/mL): 99.62* % Area |
| CC(C)c1cnn2c(N[C@@H]3CCc4[nH]c5ccccc5c4C3)nc(-c3cncc(F)c3)nc12 [Compound 4 Form A] |  |  |  | 1.5 | 1.5 | 1.1 | 6 | 5.5 | 1.9 | 5 | 4.5 | 4.4 | 4.5 | 3 | 1.5 | 94.31 | 94.20 | 99.37 | exhibited degradation at 1 and 2 weeks, but the degradant peaks were no longer present at 4 weeks | 99.77 | Solubility ([1]; FaSSGF, 30 minutes): <0.1 µg/mL; Solubility ([1]; FaSSGF, 120 minutes): <0.1 µg/mL; Solubility ([1]; FaSSGF, 24 hours): <0.1 µg/mL; Solubility ([1]; FaSSIF, 30 minutes): 71 µg/mL (≈ 161 µM); Solubility ([1]; FaSSIF, 120 minutes): 38 µg/mL (≈ 86.1 µM); Solubility ([1]; FaSSIF, 24 hours): 25 µg/mL (≈ 56.6 µM); Solubility ([1]; FeSSIF, 30 minutes): 48 µg/mL (≈ 109 µM); Solubility ([1]; FeSSIF, 120 minutes): 110 µg/mL (≈ 249 µM); Solubility ([1]; FeSSIF, 24 hours): 33 µg/mL (≈ 74.7 µM); Solubility ([1]; Water, 30 minutes): <0.1 µg/mL; Solubility ([1]; Water, 120 minutes): <0.1 µg/mL; Solubility ([1]; Water, 24 hours): <0.1 µg/mL |
